Activity calls are given as the source filed them. How the calls were made is not given here.
Assay: cytotoxicity of LYPLA inhibitor compounds, late-stage follow-up, cytotoxicity control for LYPLA1/LYPLA2 inhibitor project, cell-based, absorbance readout, serum-free and serum-supplemented medium (AID 743127)
Details: cell viability, serum-free or serum medium

Structure (SMILES) | CC50 (in serum-free medium) | CC50 (in serum-supplemented medium)
O=C(ON1C(=O)C2CN(C(=O)N3CCOCC3)CCN2C1=O)N1CCC(CCc2ccc(Cl)cc2)CC1 (centres undefined) | > 100 µM (inactive) | 100 µM (inactive)
O=C(ON1C(=O)C2CN(C(=O)N3CCCCC3)CCN2C1=O)N1CCC(CCc2ccc(Cl)cc2)CC1 (centres undefined) | > 10 µM (inactive) | > 10 µM (inactive)
